In US11274074B2, “Pharmaceutical composition for ANO1 antagonist with anticancer activity” (INDUSTRY-ACADEMIC COOPERATION FOUNDATION, YONSEI UNIVERSITY, priority 2018, dated 2022):

Tests used:
ANO1 = ANO1 (Homo sapiens (Human), UniProt Q5XXA6); assay: Selective inhibition of ANO1 over ANO2 (Table 1), ANO1 IC50; format: cell-based
ANO2 [1] = target: T1, ANO2 (Homo sapiens (Human), UniProt Q9NQ90); assay: Selective inhibition of ANO1 over ANO2 (Table 1), ANO2 IC50; format: cell-based
[2] = system: ANO1 protein in PC-3 cells; assay: Western blot of ANO1 protein level in PC-3 cells expressing ANO1 at high level; format: cell-based; settings: for decrease of the expression level of ANO1: PC-3 cells
[3] = Stability in mouse plasma (LC-MS/MS); format: in vitro ADME; settings: for half-life at 5 μM: mouse, 37° C.
human WT-CFTR = human WT-CFTR (Homo sapiens (Human), UniProt P13569); assay: Short-circuit current in FRT cells expressing CFTR; format: cell-based
MCF7 breast cancer cells = assay: MTS cell viability, MCF7 breast cancer cells highly expressing ANO1; format: cell-based; settings: MTS assay, 24 hours
Description: (§1) The cell viability was determined by the MTS assay (mean±S.E., n=4).
(§2) 24 hours later, after adding 20 μL of an MTS solution to each well and culturing at 37° C. for 30 minutes under 5% CO2, absorbance was measured at 490 nm using a microplate reader.

[4] = system: PC-3 cells not expressing ANO1; assay: MTS cell viability, PC-3 cells not expressing ANO1; format: cell-based; settings: MTS assay, 24 hours
Description: (§3) The cell viability was determined by the MTS assay (mean±S.E., n=4; * P<0.05, ** P<0.01, *** P<0.001).
as §2
(§4) In FIG. 2B, PC-3 cells were treated with the [Chemical Formula 5] compound at different concentrations in the same manner as in FIG. 2A. […] After adding 20 μL of an MTS solution to each well and culturing at 37° C. for 30 minutes under 5% CO2, absorbance was measured at 490 nm using a microplate reader.

[5] = system: PC-3 cells highly expressing ANO1; assay: MTS cell viability, PC-3 cells highly expressing ANO1; format: cell-based; settings: MTS assay, 24 hours
Description: as §3, §2, §4

[6] = system: BxPC3 pancreatic cancer cells; assay: MTS cell viability, BxPC3 pancreatic cancer cells highly expressing ANO1; format: cell-based; settings: MTS assay, 24 hours
Description: as §1, §2

ANO2 [7] = target: T1, ANO2; assay: Short-circuit current in FRT cells expressing ANO2; format: cell-based
[8] = system: smooth muscle of the mouse ileum; assay: Contraction of smooth muscle using mouse ileal section
ANO1 (TMEM16A) = ANO1 (TMEM16A) (Homo sapiens (Human), UniProt Q5XXA6); assay: Short-circuit current (apical membrane current) in FRT cells expressing ANO1; format: cell-based
Description: Specifically, Fischer rat thyroid (FRT) cells expressing ANO1 were differentiated by culturing in DMEM/Ham's F12 medium in Transwell for 5 days and then short-circuit current was measured using an Ussing chamber. Then, a regular HCO^3− solution (120 mM NaCl, 5 mM KCl, 1 mM MgCl2, 2.5 mM HEPES, 1 mM CaCl2, 10 mM glucose, 25 mM NaHCO3) was added to a basolateral bath of the Ussing chamber, and a luminal bath was stabilized for 20 minutes by creating a Cl^− gradient by maintaining at 70 mM Cl^−. Then, after treating with the [Chemical Formula 5] compound at different concentrations (0, 0.003, 0.01, 0.03, 0.1, 0.3, 1.0 μM) and carrying out reaction for 20 minutes, ATP (100 μM) was added and the inhibitory effect for Cl^− secretion was measured through ANO1 activity.

T1 sequence (Q9NQ90 other isoform, or with tags, fused parts or gaps, species assumed): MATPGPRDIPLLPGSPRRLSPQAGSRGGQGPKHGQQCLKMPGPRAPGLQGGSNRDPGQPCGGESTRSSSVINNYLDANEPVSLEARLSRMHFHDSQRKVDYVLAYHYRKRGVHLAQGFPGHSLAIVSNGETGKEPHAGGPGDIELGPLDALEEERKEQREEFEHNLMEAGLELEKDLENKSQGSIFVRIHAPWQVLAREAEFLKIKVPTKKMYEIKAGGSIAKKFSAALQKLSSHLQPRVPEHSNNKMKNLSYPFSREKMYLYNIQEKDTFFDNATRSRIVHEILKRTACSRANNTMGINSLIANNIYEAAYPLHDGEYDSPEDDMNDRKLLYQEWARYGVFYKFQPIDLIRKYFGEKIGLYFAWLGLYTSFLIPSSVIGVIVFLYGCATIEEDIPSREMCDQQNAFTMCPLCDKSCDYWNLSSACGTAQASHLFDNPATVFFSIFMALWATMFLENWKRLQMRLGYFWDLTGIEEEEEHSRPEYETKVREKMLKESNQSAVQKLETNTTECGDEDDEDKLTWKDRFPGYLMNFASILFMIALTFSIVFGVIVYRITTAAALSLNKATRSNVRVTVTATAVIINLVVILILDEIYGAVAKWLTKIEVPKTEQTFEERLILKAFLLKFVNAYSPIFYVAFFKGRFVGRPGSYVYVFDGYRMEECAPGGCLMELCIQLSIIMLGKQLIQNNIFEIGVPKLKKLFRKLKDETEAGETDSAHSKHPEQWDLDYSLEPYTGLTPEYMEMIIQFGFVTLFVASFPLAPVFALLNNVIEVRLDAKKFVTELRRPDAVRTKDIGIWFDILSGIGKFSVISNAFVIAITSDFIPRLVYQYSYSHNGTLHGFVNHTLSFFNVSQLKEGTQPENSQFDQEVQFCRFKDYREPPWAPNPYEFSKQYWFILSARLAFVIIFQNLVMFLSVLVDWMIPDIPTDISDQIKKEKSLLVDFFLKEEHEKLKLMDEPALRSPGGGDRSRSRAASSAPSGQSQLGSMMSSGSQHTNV
Chain of ANO1 (Q5XXA6 whole entry, species assumed): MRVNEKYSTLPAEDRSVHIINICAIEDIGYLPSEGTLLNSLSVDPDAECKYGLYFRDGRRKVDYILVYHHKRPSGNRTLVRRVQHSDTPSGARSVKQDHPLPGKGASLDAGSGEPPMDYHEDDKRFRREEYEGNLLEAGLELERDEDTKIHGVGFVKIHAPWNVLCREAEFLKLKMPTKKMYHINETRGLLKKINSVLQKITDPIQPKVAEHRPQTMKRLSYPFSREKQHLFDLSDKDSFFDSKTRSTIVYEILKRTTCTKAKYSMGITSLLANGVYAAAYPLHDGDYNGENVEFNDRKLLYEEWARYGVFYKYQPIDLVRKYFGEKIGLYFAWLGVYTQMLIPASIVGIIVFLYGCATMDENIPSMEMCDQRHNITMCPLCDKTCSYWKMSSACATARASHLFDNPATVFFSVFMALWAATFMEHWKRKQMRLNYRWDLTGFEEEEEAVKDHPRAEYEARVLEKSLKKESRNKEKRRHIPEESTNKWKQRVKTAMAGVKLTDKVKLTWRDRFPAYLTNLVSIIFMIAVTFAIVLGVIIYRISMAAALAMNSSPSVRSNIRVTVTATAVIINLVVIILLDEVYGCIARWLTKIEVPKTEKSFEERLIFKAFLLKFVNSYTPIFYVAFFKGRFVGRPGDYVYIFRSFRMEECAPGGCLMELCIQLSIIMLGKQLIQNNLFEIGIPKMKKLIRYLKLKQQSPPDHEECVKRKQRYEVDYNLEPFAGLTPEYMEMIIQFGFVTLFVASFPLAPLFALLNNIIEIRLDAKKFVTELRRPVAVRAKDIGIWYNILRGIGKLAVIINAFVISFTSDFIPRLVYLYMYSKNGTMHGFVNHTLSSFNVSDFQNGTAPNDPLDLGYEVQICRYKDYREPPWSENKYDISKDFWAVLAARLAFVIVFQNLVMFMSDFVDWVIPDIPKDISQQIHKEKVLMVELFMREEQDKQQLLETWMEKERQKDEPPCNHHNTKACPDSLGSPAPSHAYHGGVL
Chain of human WT-CFTR (P13569 whole entry): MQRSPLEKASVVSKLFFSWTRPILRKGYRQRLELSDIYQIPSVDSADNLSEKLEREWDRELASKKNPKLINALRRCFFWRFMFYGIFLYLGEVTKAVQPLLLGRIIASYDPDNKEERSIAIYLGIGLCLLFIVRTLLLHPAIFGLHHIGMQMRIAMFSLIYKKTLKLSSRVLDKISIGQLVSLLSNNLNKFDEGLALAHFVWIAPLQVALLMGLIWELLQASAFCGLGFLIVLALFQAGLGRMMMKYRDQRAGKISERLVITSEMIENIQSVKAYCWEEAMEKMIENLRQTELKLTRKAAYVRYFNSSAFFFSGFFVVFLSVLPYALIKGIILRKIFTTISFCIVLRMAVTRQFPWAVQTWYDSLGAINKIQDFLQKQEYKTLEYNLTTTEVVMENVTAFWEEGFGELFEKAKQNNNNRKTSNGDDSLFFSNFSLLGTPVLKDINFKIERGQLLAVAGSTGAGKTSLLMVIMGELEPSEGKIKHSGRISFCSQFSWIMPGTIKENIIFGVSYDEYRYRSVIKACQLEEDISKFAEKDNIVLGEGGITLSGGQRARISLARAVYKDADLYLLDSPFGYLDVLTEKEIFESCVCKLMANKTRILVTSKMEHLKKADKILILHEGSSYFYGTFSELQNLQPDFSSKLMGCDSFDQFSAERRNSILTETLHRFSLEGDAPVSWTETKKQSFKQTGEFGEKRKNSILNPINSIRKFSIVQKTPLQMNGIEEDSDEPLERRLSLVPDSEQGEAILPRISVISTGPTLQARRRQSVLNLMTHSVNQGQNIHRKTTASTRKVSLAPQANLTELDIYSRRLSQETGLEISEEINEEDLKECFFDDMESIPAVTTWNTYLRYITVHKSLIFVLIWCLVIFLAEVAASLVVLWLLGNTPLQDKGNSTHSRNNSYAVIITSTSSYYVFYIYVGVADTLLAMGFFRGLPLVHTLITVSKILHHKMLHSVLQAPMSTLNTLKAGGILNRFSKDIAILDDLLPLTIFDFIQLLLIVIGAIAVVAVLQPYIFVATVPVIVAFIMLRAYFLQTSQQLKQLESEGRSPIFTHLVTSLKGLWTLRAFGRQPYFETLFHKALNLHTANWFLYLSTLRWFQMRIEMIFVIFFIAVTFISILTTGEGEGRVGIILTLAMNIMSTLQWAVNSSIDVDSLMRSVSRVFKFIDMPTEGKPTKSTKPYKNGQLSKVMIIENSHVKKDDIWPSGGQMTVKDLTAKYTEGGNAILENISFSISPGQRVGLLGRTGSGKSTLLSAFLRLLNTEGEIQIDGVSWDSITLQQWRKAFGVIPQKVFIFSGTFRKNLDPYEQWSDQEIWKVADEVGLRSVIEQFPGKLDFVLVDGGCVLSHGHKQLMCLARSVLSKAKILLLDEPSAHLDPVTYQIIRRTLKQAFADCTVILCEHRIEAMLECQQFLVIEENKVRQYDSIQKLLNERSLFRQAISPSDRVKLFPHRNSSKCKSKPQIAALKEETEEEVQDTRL
Chain of ANO1 (TMEM16A) (Q5XXA6 whole entry, species assumed): as the sequence (Q5XXA6 whole entry, species assumed) above

Compound | IC50 (ANO1) [µM] | IC50 (ANO2 [1]) [µM] | further results
Cc1cc(Cl)ccc1OCC(=O)N/N=C/c1cccc(F)c1 [Comparative Example 5] | > 100 |  | 
COc1cccc(-c2nnc(COc3ccc(Cl)cc3C)o2)c1 [Comparative Example 4] | > 100 | > 100 | 
Cc1cc(Cl)ccc1OCc1nnc(-c2ccccc2C(F)(F)F)o1 [Comparative Example 7] | > 100 | > 100 | 
Cc1cc(Cl)ccc1OCC(=O)N/N=C1/C(=O)N(C)c2ccccc21 [Comparative Example 13] | > 100 |  | 
COc1ccccc1/C=N/NC(=O)COc1ccc(Cl)cc1C [Ani9, reference compound] |  |  | plasma stability [3]: low; half-life at 5 μM [3]: 0.533 h
Cc1cc(Cl)ccc1OC(F)(F)C(=O)N/N=C/c1ccccc1OC(F)(F)F [Comparative Example 19] | > 100 | > 100 | 
COc1ccccc1-c1nnc(-c2cc3cc(Cl)ccc3o2)o1 [Comparative Example 2] | > 100 | > 100 | 
Cc1cc(Cl)ccc1OCC(=O)Nc1nc2ccccc2s1 [Comparative Example 15] | > 100 | > 100 | 
Cc1cc(Cl)ccc1OCc1nnc(-c2cccc(OC(F)(F)F)c2)o1 [Comparative Example 10] | > 100 |  | 
Cc1cc(Cl)ccc1OC(C)(C)C(=O)N/N=C/c1ccccc1OC(F)(F)F [Comparative Example 18] |  | > 100 | 
CFTRinh-172 [reference compound] |  |  | inhibition of CFTR (human WT-CFTR; 10 μM): completely inhibited
Cc1cc(Cl)ccc1OCC(=O)N/N=C/c1cccc(OC(F)(F)F)c1 [Comparative Example 9] | > 100 |  | effect on cell viability of MCF7 breast cancer cells highly expressing ANO1 (MCF7 breast cancer cells): insignificant effect; effect on cell viability of PC3 cells not expressing ANO1 [4]: insignificant effect; ANO1 inhibitory activity (in words) (ANO1): not to inhibit ANO1; effect on cell viability of PC-3 cells highly expressing ANO1 [5]: insignificant effect; effect on cell viability of BxPC3 pancreatic cancer cells highly expressing ANO1 [6]: insignificant effect
CCOC(=O)C(F)Oc1ccccc1/C=N/NC(=O)COc1ccc(Cl)cc1C (stereo not shown) [Example 7] | 15.7 ± 0.01 | 59.4 ± 0.45 | 
Cc1cc(Cl)ccc1OCc1nnc(-c2ccccc2OC(F)(F)F)o1 [Comparative Example 8] | > 100 |  | 
Cc1cc(Cl)ccc1OC(C)C(=O)N/N=C/c1ccccc1OC(F)(F)F (stereo not shown) [Comparative Example 17] | > 100 |  | 
Cc1cc(Cl)ccc1OCC(=O)N/N=C1\CCOc2ccccc21 [Comparative Example 14] | > 100 |  | 
Cc1cc(Cl)ccc1OCc1nnc(-c2ccccn2)o1 [Comparative Example 11] | > 100 |  | 
COc1ccccc1/C=N/NC(=O)c1cc2cc(Cl)ccc2o1 [Comparative Example 1] | > 100 | > 100 | 
COc1cccc(/C=N/NC(=O)COc2ccc(Cl)cc2C)c1 [Comparative Example 3] | > 100 |  | 
CCOC(=O)c1cc2ccccn2c1/C=N/NC(=O)COc1ccc(Cl)cc1C [Comparative Example 12] | > 100 | > 100 | 
Cc1cc(Cl)ccc1OCc1nnc(-c2cccc(F)c2)o1 [Comparative Example 6] | > 100 | > 100 | 

Further lines, with some results ahead:

IC50 (ANO1) [µM] | IC50 (ANO2 [1]) [µM] | Compound | further results
0.21 ± 0.04 |  | Cc1cc(Cl)ccc1OCC(=O)N/N=C/c1ccccc1C(F)(F)F [Example 5] | 
> 100 |  | COC(=O)c1sc(NC(=O)COc2ccc(Cl)cc2C)nc1C [Comparative Example 16] | 
19.4 ± 0.01 | 12.4 ± 0.05 | COc1ccccc1-c1nnc(COc2ccc(Cl)cc2C)o1 [Example 3] | 
63.8 ± 0.02 | > 100 | Cc1cc(Cl)ccc1OCc1nnc(-c2ccco2)o1 [Example 9] | 
20.6 ± 0.02 | 13.1 ± 0.07 | COc1ccccc1CNC(=O)COc1ccc(Cl)cc1C [Example 11] | 
14.2 ± 0.07 |  | Cc1cc(Cl)ccc1OCC(=O)Nc1nc2cc(Cl)ccc2o1 [Example 13] | reduction of ANO1 expression level as compared to Ani9 ([2]; 10 μM): ~2.05 times; decrease of the expression level of ANO1 ([2]; 10 μM): 48.8±2.9%
53.7 ± 0.05 | > 100 | COc1cccc(CNC(=O)COc2ccc(Cl)cc2C)c1 [Example 12] | 
21.2 ± 0.17 | > 100 | Cc1cc(Cl)ccc1OCc1nnc(-c2ccccc2F)o1 [Example 4] | 
0.021 ± 0.005 |  | Cc1cc(Cl)ccc1OCC(=O)N/N=C/c1ccccc1OC(F)(F)F [Example 1] | effect on cell viability of MCF7 breast cancer cells highly expressing ANO1 (MCF7 breast cancer cells): selectively inhibited the growth; plasma stability [3]: higher stability in the mouse plasma than Ani9; half-life at 5 μM [3]: 1.73 h; inhibition at 100 µM (ANO2 [7]): 17.1%; inhibition of the activity of CFTR (human WT-CFTR; 100 μM, forskolin-activated CFTR): did not inhibit; reduction of ANO1 expression level as compared to Ani9 ([2]; 3 μM): about 11.5 times; decrease of the expression level of ANO1 ([2]; 3 μM): 59.8±4.6%; reduction of ANO1 expression level as compared to Ani9 ([2]; 10 μM): ~2.28 times; decrease of the expression level of ANO1 ([2]; 10 μM): 66.5±4.7%; contraction frequency of smooth muscle [8]: no effect; contraction of smooth muscle of the mouse ileum [8]: strongly inhibited; decrease of maximum contraction intensity of smooth muscle ([8]; 300 nM): 53.3%; decrease of maximum contraction intensity of smooth muscle ([8]; 1 μM): 68.8%; ANO1 inhibitory activity (in words) (ANO1): strongest ANO1 inhibitory activity; inhibition of ANO1 activity as compared to Ani9 (ANO1 (TMEM16A)): ≥ 4 times; IC50 (ANO1 (TMEM16A); FRT cells expressing ANO1, short-circuit current, ATP 100 μM): 0.022 µM; effect on cell viability of PC-3 cells highly expressing ANO1 [5]: selectively inhibited the growth of the PC-3 cells highly expressing ANO1 in a concentration-dependent manner; effect on cell viability of BxPC3 pancreatic cancer cells highly expressing ANO1 [6]: selectively inhibited the growth
25.7 ± 0.01 |  | Cc1cc(Cl)ccc1OCC(=O)N/N=C/c1ccco1 [Example 8] | 
14.8 ± 0.01 | > 100 | CCOC(=O)c1csc(NC(=O)COc2ccc(Cl)cc2C)n1 [Example 14] | 
31.3 ± 0.57 | > 100 | Cc1cc(Cl)ccc1OCC(=O)N/N=C/c1ccccn1 [Example 10] | 
10.7 ± 0.14 | > 100 | COc1ccccc1CNNC(=O)COc1ccc(Cl)cc1C [Example 2] | 
0.3 ± 0.02 | > 100 | C/C(=N\NC(=O)COc1ccc(Cl)cc1C)c1ccccc1OC(F)(F)F [Example 6] | reduction of ANO1 expression level as compared to Ani9 ([2]; 10 μM): about 1.21 times; decrease of the expression level of ANO1 ([2]; 10 μM): 28.9±0.9%; ANO1 inhibitory activity (in words) (ANO1): slightly weaker inhibitory activity than the compound of Example 1
